According to patent publication US20250213735A1, “NEUROPEPTIDE Y1 RECEPTOR (NPY1R) TARGETED THERAPEUTICS AND USES THEREOF” (Radionetics Oncology, Inc., priority 2023, published 2025):
Numbered stars: 1 amine (or outer) side, 2 acyl side, 3 side chain; on linkers, the order of the positions; unused ones are H or OH. Square brackets hold non-standard residues; d marks the D form. Peptide text beside a SMILES is read from it. * marks the point of attachment. dArg(Nω-CONH(CH2)2NHCOEt) = CCC(=O)NCCNC(=O)/N=C(/N)NCCC[C@@H](N)C(=O)O; DOTA = O=C(O)CN1CCN(CC(=O)O)CCN(CC(=O)*)CCN(CC(=O)O)CC1; X1 = O=C([C@H](c1ccc(OCCCN[*:1])cc1)N1Cc2ccccc2C1)[*:2]; NH(2,6-F2-4-OH-benzyl) = Oc1cc(F)c(CN*)c(F)c1; Sar = CNCC(=O)O

Molecular target: hNPY1R (Homo sapiens (Human), UniProt P25929)
Sequence (P25929 whole entry): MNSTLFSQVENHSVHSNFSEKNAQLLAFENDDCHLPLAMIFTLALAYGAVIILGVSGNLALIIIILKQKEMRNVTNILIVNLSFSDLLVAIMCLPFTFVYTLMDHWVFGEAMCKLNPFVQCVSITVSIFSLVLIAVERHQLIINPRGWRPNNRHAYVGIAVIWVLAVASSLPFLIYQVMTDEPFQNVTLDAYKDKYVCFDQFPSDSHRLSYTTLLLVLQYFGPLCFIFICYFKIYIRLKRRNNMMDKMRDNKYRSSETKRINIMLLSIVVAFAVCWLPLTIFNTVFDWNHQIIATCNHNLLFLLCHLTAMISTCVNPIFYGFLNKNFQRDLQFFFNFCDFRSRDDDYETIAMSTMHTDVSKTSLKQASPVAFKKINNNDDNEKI
Assay: NPY1R binding assay (SK-N-MC membrane, [125I]-Peptide YY competition);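 also: bound radioligand separated by filtration over GF/C filter plates and counted, Ki obtained by non-linear regression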
Details: crude SK-N-MC membranes endogenously expressing NPY1R; [125I]-Peptide YY (human) 0.05 nM; 120 min at room temperature; read-out: hNPY1R binding Ki

| Ki [µM] | SMILES |
| --- | --- |
| < 0.01 | CCC(=O)NCCNC(=O)/N=C(/N)NCCC[C@@H](NC(=O)C(c1ccc(OCCCN)cc1)N1Cc2ccccc2C1)C(=O)NCc1c(F)cc(O)cc1F (stereo in doubt) [compound 62, (R)-2-((S)-2-(4-(3-aminopropoxy)phenyl)-2-(isoindolin-2-yl)acetamido)-N-(2,6-difluoro-4-hydroxybenzyl)-5-((Z)-2-((2-propionamidoethyl)carbamoyl)guanidino)pentanamide] |
| < 0.01 | CCC(=O)NCCNC(=O)/N=C(/N)NCCC[C@@H](NC(=O)[C@H](c1ccc(OCCCNC(=O)CN(C)C(=O)CN(C)C(=O)CN(C)C(=O)CN2CCN(CC(=O)O)CCN(CC(=O)O)CCN(CC(=O)O)CC2)cc1)N1Cc2ccccc2C1)C(=O)NCc1c(F)cc(O)cc1F [compound 46, 2,2′,2″-(10-(15-(4-((1S,4R,Z)-9-amino-4-((2,6-difluoro-4-hydroxybenzyl)carbamoyl)-1-(isoindolin-2-yl)-2,11,16-trioxo-3,8,10,12,15-pentaazaoctadec-9-en-1-yl)phenoxy)-3,6,9-trimethyl-2,5,8,11-tetraoxo-3,6,9,12-tetraazapentadecyl)-1,4,7,10-tetraazacyclododecane-1,4,7-triyl)triacetic acid] ({DOTA}-[Sar][Sar][Sar][X1][dArg(Nω-CONH(CH2)2NHCOEt)]-{NH(2,6-F2-4-OH-benzyl)}) |
| 0.01 to 0.1 | CCC(=O)NCCNC(=O)/N=C(/N)NCCC[C@@H](NC(=O)[C@@H](c1ccccc1)N1Cc2ccccc2C1)C(=O)NCc1ccc(O)cc1 [60B, (R)—N-(4-hydroxybenzyl)-2-((R)-2-(isoindolin-2-yl)-2-phenylacetamido)-5-((Z)-2-((2-propionamidoethyl)carbamoyl)guanidino)pentanamide] |
| 0.1 to 1 | N=C(N)NCCC[C@@H](NC(=O)C(c1ccccc1)N1CCC(c2ccccc2)CC1)C(=O)NCc1ccc(O)cc1 (stereo partly drawn) [compound 86, (2R)-5-guanidino-N-(4-hydroxybenzyl)-2-(2-phenyl-2-(4-phenylpiperidin-1-yl)acetamido)pentanamide] |
| < 0.01 | CCC(=O)NCCNC(=O)/N=C(/N)NCCC[C@@H](NC(=O)[C@H](c1ccc(OCCCN)cc1)N1Cc2ccccc2C1)C(=O)NCc1ccc(O)cc1 [64A, (R)-2-((S)-2-(4-(3-aminopropoxy)phenyl)-2-(isoindolin-2-yl)acetamido)-N-(4-hydroxybenzyl)-5-((Z)-2-((2-propionamidoethyl)carbamoyl)guanidino)pentanamide] |
| < 0.01 | CCC(=O)NCCNC(=O)/N=C(/N)NCCC[C@@H](NC(=O)[C@H](c1ccc(OCCCNC(=O)CN2CCN(CC(=O)O)CCN(CC(=O)O)CCN(CC(=O)O)CC2)cc1)N1Cc2ccccc2C1)C(=O)NCc1ccc(O)cc1 [compound 59, 2,2′,2″-(10-(2-((3-(4-((1S,4R,Z)-9-amino-4-((4-hydroxybenzyl)carbamoyl)-1-(isoindolin-2-yl)-2,11,16-trioxo-3,8,10,12,15-pentaazaoctadec-9-en-1-yl)phenoxy)propyl)amino)-2-oxoethyl)-1,4,7,10-tetraazacyclododecane-1,4,7-triyl)triacetic acid] |
| 0.1 to 1 | N=C(N)NCCC[C@@H](NC(=O)C(c1ccccc1)N1CCC2(CC1)CC(F)(F)C2)C(=O)NCc1ccc(O)cc1 (stereo partly drawn) [compound 90, (2R)-2-(2-(2,2-difluoro-7-azaspiro[3.5]nonan-7-yl)-2-phenylacetamido)-5-guanidino-N-(4-hydroxybenzyl)pentanamide] |
| < 0.01 | CCNC(=O)/N=C(/N)NCCC[C@@H](NC(=O)[C@H](c1ccccc1)N1Cc2cccc(NCCCN)c2C1)C(=O)NCc1c(F)cc(O)cc1F [compound 65, (R)-2-((S)-2-(4-((3-aminopropyl)amino)isoindolin-2-yl)-2-phenylacetamido)-N-(2,6-difluoro-4-hydroxybenzyl)-5-((Z)-2-(ethylcarbamoyl)guanidino)pentanamide] |
| 0.01 to 0.1 | CCC(=O)NCCNC(=O)/N=C(/N)NCCC[C@@H](NC(=O)[C@@H](c1ccc(CCCOCCOCCNC(=O)CN2CCN(CC(=O)O)CCN(CC(=O)O)CCN(CC(=O)O)CC2)cc1)N1Cc2ccccc2C1)C(=O)NCc1c(F)cc(O)cc1F (single isomer, unassigned) [8B] |
| 0.1 to 1 | CC1(C)CCCN(C(C(=O)N[C@H](CCCNC(=N)N)C(=O)NCc2ccc(O)cc2)c2ccccc2)C1 (stereo partly drawn) [compound 75, (2R)-2-(2-(3,3-dimethylpiperidin-1-yl)-2-phenylacetamido)-5-guanidino-N-(4-hydroxybenzyl)pentanamide] |

| SMILES | Ki [µM] |
| --- | --- |
| CCC(=O)NCCNC(=O)/N=C(/N)NCCC[C@@H](NC(=O)[C@H](c1ccc(OCCCNC(=O)CCOCCNC(=O)c2ccc(CNC(=O)CN3CCN(CC(=O)O)CCN(CC(=O)O)CCN(CC(=O)O)CC3)cc2)cc1)N1Cc2ccccc2C1)C(=O)NCc1ccc(O)cc1 [compound 17, 2,2′,2″-(10-(2-((4-((2-(3-((3-(4-((1S,4R,Z)-9-amino-4-((4-hydroxybenzyl)carbamoyl)-1-(isoindolin-2-yl)-2,11,16-trioxo-3,8,10,12,15-pentaazaoctadec-9-en-1-yl)phenoxy)propyl)amino)-3-oxopropoxy)ethyl)carbamoyl)benzyl)amino)-2-oxoethyl)-1,4,7,10-tetraazacyclododecane-1,4,7-triyl)triacetic acid] | < 0.01 |
| CCC(=O)NCCNC(=O)/N=C(/N)NCCC[C@@H](NC(=O)[C@H](c1cccc(NCCCNC(=O)CCCCCNC(=O)NCCONC(=O)CN2CCN(CC(=O)O)CCN(CC(=O)O)CCN(CC(=O)O)CC2)c1)N1Cc2ccccc2C1)C(=O)NCc1ccc(O)cc1 [compound 27, 2,2′,2″-(10-(19-((3-((1S,4R,Z)-9-amino-4-((4-hydroxybenzyl)carbamoyl)-1-(isoindolin-2-yl)-2,11,16-trioxo-3,8,10,12,15-pentaazaoctadec-9-en-1-yl)phenyl)amino)-2,8,15-trioxo-4-oxa-3,7,9,16-tetraazanonadecyl)-1,4,7,10-tetraazacyclododecane-1,4,7-triyl)triacetic acid] | < 0.01 |
| CCC(=O)NCCNC(=O)/N=C(/N)NCCC[C@@H](NC(=O)[C@H](c1ccc(OCCCNC(=O)NCCONC(=O)CN2CCN(CC(=O)O)CCN(CC(=O)O)CCN(CC(=O)O)CC2)cc1)N1Cc2ccccc2C1)C(=O)NCc1c(F)cc(O)cc1F [compound 45, 2,2′,2″-(10-(12-(4-((1S,4R,Z)-9-amino-4-((2,6-difluoro-4-hydroxybenzyl)carbamoyl)-1-(isoindolin-2-yl)-2,11,16-trioxo-3,8,10,12,15-pentaazaoctadec-9-en-1-yl)phenoxy)-2,8-dioxo-4-oxa-3,7,9-triazadodecyl)-1,4,7,10-tetraazacyclododecane-1,4,7-triyl)triacetic acid] | < 0.01 |
| N=C(N)NCCC[C@@H](NC(=O)[C@@H](c1ccccc1)N1Cc2ccccc2C1=O)C(=O)NCc1ccc(O)cc1 [71B, (R)-5-guanidino-N-(4-hydroxybenzyl)-2-((R)-2-(1-oxoisoindolin-2-yl)-2-phenylacetamido)pentanamide] | > 1 |
| CCNC(=O)/N=C(/N)NCCC[C@@H](NC(=O)C(c1ccccc1)N1Cc2ccccc2C1)C(=O)NCc1c(F)cc(O)cc1F (stereo partly drawn) [compound 67, (2R)—N-(2,6-difluoro-4-hydroxybenzyl)-5-((Z)-2-(ethylcarbamoyl)guanidino)-2-(2-(isoindolin-2-yl)-2-phenylacetamido)pentanamide] | < 0.01 |
| CCC(=O)NCCNC(=O)/N=C(/N)NCCC[C@@H](NC(=O)[C@H](c1ccc(OCCCNC(=O)CCC(=O)NCCOCCNC(=O)CN2CCN(CC(=O)O)CCN(CC(=O)O)CCN(CC(=O)O)CC2)cc1)N1Cc2ccccc2C1)C(=O)NCc1c(F)cc(O)cc1F [compound 43, 2,2′,2″-(10-(17-(4-((1S,4R,Z)-9-amino-4-((2,6-difluoro-4-hydroxybenzyl)carbamoyl)-1-(isoindolin-2-yl)-2,11,16-trioxo-3,8,10,12,15-pentaazaoctadec-9-en-1-yl)phenoxy)-2,10,13-trioxo-6-oxa-3,9,14-triazaheptadecyl)-1,4,7,10-tetraazacyclododecane-1,4,7-triyl)triacetic acid] | < 0.01 |
| CCC(=O)NCCNC(=O)/N=C(/N)NCCC[C@@H](NC(=O)[C@H](c1ccccc1)N1Cc2cccc(NCCCNc3c(NCCCCCCNC(=O)CN4CCN(CC(=O)O)CCN(CC(=O)O)CCN(CC(=O)O)CC4)c(=O)c3=O)c2C1)C(=O)NCc1c(F)cc(O)cc1F [compound 34, 2,2′,2″-(10-(2-((6-((2-((3-((2-((1S,4R,Z)-9-amino-4-((2,6-difluoro-4-hydroxybenzyl)carbamoyl)-2,11,16-trioxo-1-phenyl-3,8,10,12,15-pentaazaoctadec-9-en-1-yl)isoindolin-4-yl)amino)propyl)amino)-3,4-dioxocyclobut-1-en-1-yl)amino)hexyl)amino)-2-oxoethyl)-1,4,7,10-tetraazacyclododecane-1,4,7-triyl)triacetic acid] | < 0.01 |
| CCNC(=O)/N=C(/N)NCCC[C@@H](NC(=O)[C@H](c1cccc(NCCCNC(=O)CCOCCNC(=O)CN2CCN(CC(=O)O)CCN(CC(=O)O)CCN(CC(=O)O)CC2)c1)N1Cc2ccccc2C1)C(=O)NCc1c(F)cc(O)cc1F [compound 14, 2,2′,2″-(10-(2-((2-(3-((3-((3-((11R,14S,Z)-6-amino-11-((2,6-difluoro-4-hydroxybenzyl)carbamoyl)-14-(isoindolin-2-yl)-4,13-dioxo-3,5,7,12-tetraazatetradec-5-en-14-yl)phenyl)amino)propyl)amino)-3-oxopropoxy)ethyl)amino)-2-oxoethyl)-1,4,7,10-tetraazacyclododecane-1,4,7-triyl)triacetic acid] | < 0.01 |
| CCC(=O)NCCNC(=O)/N=C(/N)NCCC[C@@H](NC(=O)[C@H](c1cccc(NCCCNC(=O)CCOCCNC(=O)CN2CCN(CC(=O)O)CCN(CC(=O)O)CCN(CC(=O)O)CC2)c1)N1Cc2ccccc2C1)C(=O)NCc1ccc(O)cc1 [compound 20, 2,2′,2″-(10-(2-((2-(3-((3-((3-((1S,4R,Z)-9-amino-4-((4-hydroxybenzyl)carbamoyl)-1-(isoindolin-2-yl)-2,11,16-trioxo-3,8,10,12,15-pentaazaoctadec-9-en-1-yl)phenyl)amino)propyl)amino)-3-oxopropoxy)ethyl)amino)-2-oxoethyl)-1,4,7,10-tetraazacyclododecane-1,4,7-triyl)triacetic acid] | < 0.01 |
